Assay results from patent US8541567B2, “Transition state structure of 5′-methylthioadenosine/s-adenosylhomocysteine nucleosidases” (Albert Einstein College of Medicine of Yeshiva University, priority 2005, dated 2013).
Entries after “also recorded” stand apart in the source; their conditions may differ.

Columns and labels:
[1] = biological target: T1, E. coli MTAN (Escherichia coli, UniProt P0AF12); settings: cited from earlier work; for substrate activity: result in words
T1 construct: consists of 232 amino acids belonging to E. coli MTAN and 10 residues from the N-terminal histidine fusion tag; histidine tag (N, cleaved yes); made in house
T1 sequence (P0AF12 whole entry, the tested form may be a part): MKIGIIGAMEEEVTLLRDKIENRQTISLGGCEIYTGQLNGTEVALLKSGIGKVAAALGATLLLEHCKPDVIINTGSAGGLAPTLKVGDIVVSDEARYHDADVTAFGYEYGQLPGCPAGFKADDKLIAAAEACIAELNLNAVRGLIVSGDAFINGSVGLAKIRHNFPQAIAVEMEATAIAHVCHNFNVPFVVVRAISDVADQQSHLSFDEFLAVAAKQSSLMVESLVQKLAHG

[2] = 9-deazapurine ring; cited from earlier work
[3] = biological target: T1, E. coli MTAN; assay: Slow-onset inhibition of E. coli MTAN by transition state analogues; assay type: biochemical; settings: Kd 47 fM versus Km 4.3 μM
[4] = biological target: T1, E. coli MTAN; settings: overall / equilibrium dissociation constant; read-out: dissociation constant (Kd) following slow-onset inhibition, or Ki*; cited from earlier work

In the case of CSC[C@H]1O[C@@H](n2cnc3c(N)ncnc32)C[C@@H]1O [2′-deoxy-MTA], the catalytic activity retained ([1]; relative to MTA) is given as 85% and the substrate activity [1] is given as “good substrate”.

For CSC[C@@H]1C[C@@H](O)[C@H](n2cnc3c(N)ncnc32)O1 [3′-deoxy-MTA], the substrate activity [1] is listed as “is not; also recorded: not a substrate”.

In the case of Nc1ncnc2cc[nH]c12 [9-deazaadenine], the “pKa at N7” value [2] is given as over 10.

In the case of Nc1ncnc2c1ncn2[C@@H]1O[C@H](CSCC[C@H](N)C(=O)O)[C@@H](O)[C@H]1O [S-adenosylhomocysteine], the Km ([1]; substrate S-adenosylhomocysteine) is listed as 4.3 µM.

With Nc1ncnc2c(CN3C[C@H](CSc4ccc(Cl)cc4)[C@@H](O)C3)c[nH]c12 [pC1PhT-DADMe-ImmA, (3R,4S)-4-(4-chlorophenylthiomethyl)-1-[(9-deazaadenin-9-yl]methyl)-3-hydroxypyrrolidine] the “binds tighter than the substrate S-adenosylhomocysteine” value [3] was 91 million.

In the case of “(1S)-1-(9-deazaadenin-9-yl)-1,4-dideoxy-1,4-imino-5-methylthio-D-ribitol [MT-ImmA]”, the Kd [4] is listed as 77 pM.
